Experimental findings from patent US6747036B2, “Methods of treating leukemia” (BioChem Pharma Inc., priority 1999, dated 2004) are described below.

Test [1] relates to Human Leukemia (HL60) xenograft. Briefly: β-L-OddC/doxorubicin combination study in a human leukemia (HL60) xenograft survival model. It is filed as in vivo, female SCID mice. Conditions: start day 10. The method, then:
β-L-OddC/doxorubicin Combination Study in a Human Leukemia (HL60) Xenograft Model
A study was conducted to evaluate the synergistic or additive therapeutic effect of β-L-OddC in combination with the currently known anticancer agent Doxorubicin. The model that was utilized is a survival model consisting of female SCID mice which are inoculated in the abdomen region (i.p.) with 15×10^6 HL60 cells in log phase growth. This corresponds to day 0 of the experiment. Administration of anti-cancer drug is started 10 days after tumor cell inoculation.
10 animals were used per group for β-L-oddC alone, Doxorubicin alone and the combination of β-L-oddC with Doxorubicin. Each groups received the drugs alone or in combination intraperitoneal once daily for 5 consecutive days.
Augmentation of survival time was calculated by substracting from the median survival time of group two to six, which corresponds to the day when the fifth mouse dies, the median survival time of control group 1 and multiplying by 100.
For orientation: Xenograft models place foreign cells or tissue in a host animal.

The next test deals with advanced leukemia. Briefly: Evaluation of β-L-oddC in patients with advanced leukemia previously treated with Ara-C. It is filed as in vivo, human. Conditions: twelve patients treated; 30 min daily infusion for 5 consecutive days; responders 2 each at 1.08 and 1.62 mg/m2; three AML, one CML. The method, then:
Evaluation of β-L-oddC in Patients with Advanced Leukemia.
The study involved treatment of patients with advanced leukemia that had been previously treated with Citarabine (Ara-C). […] Twelve patients were treated with an initial course at daily doses of 0.72 mg/m2 (4 patients), 1.08 mg/m^2 (5 patients), 1.62 mg/m^2 (3 patients) given as a daily infusion over 30 minutes for 5 consecutive days. Five patients were treated with second courses at daily doses of 1.08 mg/m^2 (3 patients), 1.62 mg/m^2 (2 patients) given over 5 consecutive days as above. 1 patient was treated with a 3rd 5 day course at the 2.43 mg/m^2 daily dose level. 4 patients (2 each at the 1.08 mg/m^2 and 1,62 mg/m^2 levels) have shown a transient decrease in peripheral blood and bone marrow blasts. Of these four patients, three had acute mylogenous leukemia and one had chronic mylogenous leukemia.

Regarding `COc1cccc2c1C(=O)c1c(O)c3c(c(O)c1C2=O)C[C@@](O)(C(=O)CO)C[C@@H]3O[C@H]1C[C@H](N)[C@H](O)[C@H](C)O1` [Doxorubicin], the “Augmentation Survival Time” value in test [1] (Doxorubicin 0.2 mg/kg i.p. once daily for 5 days) came to 25%; in test [1] (Doxorubicin 2 mg/kg i.p. once daily for 5 days), 50%.
In the case of `Nc1ccn([C@@H]2CO[C@H](CO)O2)c(=O)n1` [β-L-OddC, (−)-β-L-Dioxolane-Cytidine], the “patients showing a transient decrease in peripheral blood and bone marrow blasts” value in the test with advanced leukemia is given as 4 patients. In addition, the “Augmentation Survival Time” value in test [1] (β-L-OddC 1 mg/kg i.p. once daily for 5 days) is recorded as 55%.
